Here are results for 17 compounds from US9133115B2 (ACHILLION PHARMACEUTICALS, INC., priority 2008, dated 2015).

By EC50 is commonly meant the concentration needed to bring the measured effect to its halfway point.

Molecules are shown by their SMILES.

The test concerns HCV replicon. Nature of the test: HCV replicon replication assay (NPT ELISA) in Huh-7 replicon-containing cells. It counts as cell-based. As to conditions: Hepatitis C virus, 72 h; HCV replicon in Huh-7 cells, three days incubation; read-out: EC50. A digest of the protocol: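 Replication was scored by capture ELISA of neomycin phosphotransferase, whose level tracks replicon replication, after graded compound treatment. The cells were Huh-7 harbouring an HCV-IRES/neo/EMCV-IRES/NS3–NS5B/3′-NTR replicon, plated at 6000-7500 cells/well and dosed 24 h later at 60-70% confluence; interferon alpha was the positive control.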
A general note: Replicon systems follow genome replication, usually without infectious particles.
For the compound `C=C[C@@H]1C[C@]1(NC(=O)[C@@H]1C[C@@H](Oc2nc(-c3ccccc3)cc3cc(OC)ccc23)CN1C(=O)[C@@H](CC(=O)N1CCOCC1)C(C)(C)C)C(=O)NS(=O)(=O)C1CC1` [Compound 71, (2S,4R)-1-((S)-2-tert-butyl-4-morpholino-4-oxobutanoyl)-N-((1R,2S)-1-(cyclopropylsulfonyl-carbamoyl)-2-vinylcyclopropyl)-4-(6-methoxy-3-phenylisoquinolin-1-yloxy)pyrrolidine-2-carboxamide], the EC50 is < 1000 nM. On to `C=C[C@@H]1C[C@]1(NC(=O)[C@@H]1C[C@@H](NC(=O)c2cc(-c3ccccc3)nc3ccccc23)CN1C(=O)[C@@H](CC(=O)N1CCCCC1)C(C)(C)C)C(=O)NS(=O)(=O)C1CC1` [Compound 171, N-((3R,5S)-1-((S)-2-tert-butyl-4-oxo-4-(piperidin-1-yl)butanoyl)-5-((1R,2S)-1-(cyclopropyl-sulfonylcarbamoyl)-2-vinylcyclo-propylcarbamo-yl)pyrrolidin-3-yl)-2-phenylquinoline-4-carboxamide], for which the EC50 is < 1000 nM. In the case of `C=C[C@@H]1C[C@]1(NC(=O)[C@@H]1C[C@@H](Oc2cc(-c3ccccn3)nc3c4c(ccc23)OCC4)CN1C(=O)[C@@H](CC(=O)N1CCOCC1)C(C)(C)C)C(=O)NS(=O)(=O)C1CC1` [Compound 153, (2S,4R)-1-((S)-2-tert-butyl-4-morpholino-4-oxobutanoyl)-N-((1R,2S)-1-(cyclo-propylsulfonyl-carbamoyl)-2-vinylcyclopropyl)-4-(2-(pyridin-2-yl)-8,9-dihydrofuro[2,3-h]quinolin-4-yloxy)pyrrolidine-2-carboxamide], the EC50 is < 1000 nM. For the compound `C=C[C@@H]1C[C@]1(NC(=O)[C@@H]1C[C@@H](Oc2cc(-c3ccccn3)nc3c(Cl)c(OC)ccc23)CN1C(=O)[C@@H](CC(=O)N1CCCCC1)C(C)(C)C)C(=O)NS(=O)(=O)C1CC1` [Compound 179, (2S,4R)-1-((S)-2-tert-butyl-4-oxo-4-(piperidin-1-yl)butanoyl)-4-(8-chloro-7-methoxy-2-(pyridin-2-yl)quinolin-4-yloxy)-N-((1R,2S)-1-(cyclopropyl-sulfonylcarbamoyl)-2-vinylcyclo-propyl)pyrrolidine-2-carboxamide], the EC50 was < 1000 nM.

As for `C=C[C@@H]1C[C@]1(NC(=O)[C@H]1C[C@@H](Oc2cc(-c3ccccc3)nc3cc(OC)ccc23)CN1C(=O)[C@@H](CC(=O)N1CCCCC1)C(C)(C)C)C(=O)NS(=O)(=O)C1CC1` [Compound 213, (2R,4R)-1-((S)-2-tert-butyl-4-oxo-4-(piperidin-1-yl)butanoyl)-N-((1R)-1-(cyclo-propylsulfonyl-carbamoyl)-2-vinyl-cyclopropyl)-4-(7-methoxy-2-phenylquinolin-4-yloxy)pyrrolidine-2-carboxamide], the EC50 was < 1000 nM. As to `C=C[C@@H]1C[C@]1(NC(=O)[C@@H]1C[C@@H](Oc2cc(-c3ccccn3)c3ccc(OC)c(Cl)c3n2)CN1C(=O)[C@@H](CC(=O)N1CCCCC1)C(C)(C)C)C(=O)NS(=O)(=O)C1CC1` [Compound 148, (2S,4R)-1-((S)-2-tert-butyl-4-oxo-4-(piperidin-1-yl)butanoyl)-4-(8-chloro-7-methoxy-4-(pyridin-2-yl)quinolin-2-yloxy)-N-((1R,2S)-1-(cyclopropyl-sulfonylcarbamoyl)-2-vinyl-cyclopropyl)pyr-rolidine-2-carboxamide], the EC50 fell in the range of 1000 to 10000 nM. For `C=C[C@@H]1C[C@]1(NC(=O)[C@@H]1C[C@@H](Oc2cc(-c3ccccc3)nc3cc(OC)ccc23)CN1C(=O)[C@@H](CC(=O)N1CCC2CCCCC2C1)C(C)(C)C)C(=O)NS(=O)(=O)C1CC1` (stereo partly drawn) [Compound 74, (2S,4R)-1-((2S)-2-tert-butyl-4-(octa-hydroisoquinolin-2(1H)-yl)-4-oxobutanoyl)-N-((1R,2S)-1-(cyclo-propylsulfonyl-carbamoyl)-2-vinylcycloprop-yl)-4-(7-methoxy-2-phenylquinolin-4-yloxy)pyrrolidine-2-carboxamide], the EC50 was < 1000 nM.

On to `C=C[C@@H]1C[C@]1(NC(=O)[C@@H]1C[C@@H](Oc2cc(-c3ccccc3)nc3cc(OC)ccc23)CN1C(=O)[C@@H](CC(=O)N1CCCCC1)C(C)(C)C)C(=O)NS(=O)(=O)C(C)C` [Compound 63, (2S,4R)-1-((S)-2-tert-butyl-4-oxo-4-(piperidin-1-yl)butanoyl)-N-((1R,2S)-1-(isopropylsulfonyl-carbamoyl)-2-vinylcyclopropyl)-4-(7-methoxy-2-phenylquinolin-4-yloxy)pyrrolidine-2-carboxamide], for which the EC50 is < 1000 nM. The value for `C=C[C@@H]1C[C@]1(NC(=O)[C@@H]1C[C@@H](N(Cc2ccccn2)C(=O)n2c3ccccc3c3ccccc32)CN1C(=O)[C@@H](CC(=O)N1CCCC(F)(F)C1)C(C)(C)C)C(=O)NS(=O)(=O)C1CC1` [Compound 192, N-((3R,5S)-1-((S)-2-tert-butyl-4-(3,3-difluoropiperidin-1-yl)-4-oxobutanoyl)-5-((1R)-1-(cyclopropylsulfonyl-carbamoyl)-2-vinylcyclopropyl-carbamoyl)pyrrolidin-3-yl)-N-(pyridin-2-ylmethyl)-9H-carbazole-9-carboxamide] was < 1000 nM. With `C=C[C@@H]1C[C@]1(NC(=O)[C@@H]1C[C@@H](Oc2cc(-c3ccccn3)nc3c4c(ccc23)CCC4)CN1C(=O)[C@@H](CC(=O)N1CCCC(F)(F)C1)C(C)(C)C)C(=O)NS(=O)(=O)C1CC1` [Compound 236, (2S,4R)-1-((S)-2-tert-butyl-4-(3,3-difluoropiperidin-1-yl)-4-oxobutanoyl)-N-((2S)-1-(cyclopropyl-sulfonylcarbamoyl)-2-vinylcyclopropyl)-4-(2-(pyridin-2-yl)-8,9-dihydro-7H-cyclopenta[h]quino-lin-4-yloxy)pyrrolidine-2-carboxamide] the figure was < 1000 nM; with `C=C[C@@H]1C[C@]1(NC(=O)[C@@H]1C[C@@H](Oc2cc(-c3ccccc3)nc3cc(OC)ccc23)CN1C(=O)[C@@H](CC(=O)N1CCCCC1)C(C)(C)C)C(=O)NS(=O)(=O)C1(CCC)CC1` [Compound 146, (2S,4R)-1-((S)-2-tert-butyl-4-oxo-4-(piperidin-1-yl)butanoyl)-4-(7-methoxy-2-phenylquinolin-4-yloxy)-N-((1R,2S)-1-(1-propylcyclo-propylsulfonyl-carbamoyl)-2-vinyl-cyclopropyl)pyr-rolidine-2-carboxamide], < 1000 nM; with `C=C[C@@H]1C[C@]1(NC(=O)[C@@H]1C[C@@H](Oc2cc(-c3ccccc3)nc3c(C)c(OC)ccc23)CN1C(=O)[C@@H](CC(=O)N1CCC(C(F)(F)F)CC1)C(C)(C)C)C(=O)NS(=O)(=O)C1CC1` [Compound 240, (2S,4R)-1-((S)-2-tert-butyl-4-oxo-4-(4-(trifluoro-methyl)piperidin-1-yl)butanoyl)-N-((1R)-1-(cyclopropyl-sulfonylcarbamoyl)-2-vinylcyclopropyl)-4-(7-methoxy-8-methyl-2-phenylquinolin-4-yloxy)pyrrolidine-2-carboxamide], < 1000 nM. As for `C=C[C@@H]1C[C@]1(NC(=O)[C@@H]1C[C@@H](Oc2cc(-c3ccccn3)nc3cc(OC)ccc23)CN1C(=O)[C@@H](CC(=O)N1CCC(F)CC1)C(C)(C)C)C(=O)NS(=O)(=O)C1CC1` [Compound 218, (2S,4R)-1-((S)-2-tert-butyl-4-(4-fluoropiperidin-1-yl)-4-oxobutanoyl)-N-((1R)-1-(cyclo-propylsulfonyl-carbamoyl)-2-vinylcyclopropyl)-4-(7-methoxy-2-(pyridin-2-yl)quinolin-4-yloxy)pyrrolidine-2-carboxamide], the EC50 is < 1000 nM. In the case of `C=C[C@@H]1C[C@]1(NC(=O)[C@@H]1C[C@@H](Oc2cc(-c3ccccc3)nc3cc(OC)ccc23)CN1C(=O)[C@@H](CC(=O)N1CCCCC1)C(C)(C)C)C(=O)O` [Compound 210, (1R)-1-((2S,4R)-1-((S)-2-tert-butyl-4-oxo-4-(piperidin-1-yl)butanoyl)-4-(7-methoxy-2-phenylquinolin-4-yloxy)pyrrolidine-2-carboxamido)-2-vinylcyclopropane-carboxylic acid], the EC50 is > 10000 nM. With `C=C[C@@H]1C[C@]1(NC(=O)[C@@H]1C[C@@H](NC(=O)n2c3ccccc3c3ccccc32)CN1C(=O)[C@@H](CC(=O)N1CCC(F)(F)C1)C(C)(C)C)C(=O)NS(=O)(=O)C1CC1` [Compound 186, N-((3R,5S)-1-((S)-2-tert-butyl-4-(3,3-difluoropyrrolidin-1-yl)-4-oxobutanoyl)-5-((1R,2S)-1-(cyclopropylsulfonyl-carbamoyl)-2-vinyl-cyclopropyl-carbamoyl)pyrrolidin-3-yl)-9H-carbazole-9-carboxamide] the figure was < 1000 nM. The value for `C=C[C@@H]1C[C@]1(NC(=O)[C@@H]1C[C@@H](Oc2cc(-c3csc(NC(C)C)n3)nc3c(C)c(OC)ccc23)CN1C(=O)[C@@H](CC(=O)N1CCC(C(F)(F)F)CC1)C(C)(C)C)C(=O)NS(=O)(=O)C1CC1` [Compound 238, (2S,4R)-1-((S)-2-tert-butyl-4-oxo-4-(4-(trifluoro-methyl)piperidin-1-yl)butanoyl)-N-((2S)-1-(cyclopropyl-sulfonylcarbamoyl)-2-vinylcyclopropyl)-4-(2-(2-(isopropyl-amino)thiazol-4-yl)-7-methoxy-8-methylquinolin-4-yloxy)pyrrolidine-2-carboxamide] was < 1000 nM; that for `C=C[C@@H]1C[C@]1(NC(=O)[C@@H]1C[C@@H](n2nnc(-c3ccccc3)c2-c2ccccc2)CN1C(=O)[C@@H](CC(=O)N1CCCCC1)C(C)(C)C)C(=O)NS(=O)(=O)C1CC1` [Compound 128, (2S,4R)-1-((S)-2-tert-butyl-4-oxo-4-(piperidin-1-yl)butanoyl)-N-((1R,2S)-1-(cyclo-propylsulfonyl-carbamoyl)-2-vinylcyclopropyl)-4-(4,5-diphenyl-1H-1,2,3-triazol-1-yl)pyrrolidine-2-carboxamide] was 1000 to 10000 nM.
